Tests used:
[1] = molecular target: GABA-A receptor; anion channel; test: In vitro inhibition of [35S]t-butyl-bicyclophosphorothionate (TBPS) binding to Gamma-aminobutyric acid A (GABA-A) receptor; assay type: protein-complex assay, Rattus norvegicus
[2] = molecular target: GABA-A receptor; anion channel; test: Inhibition of [3H]flunitrazepam binding to GABA-A receptor; assay type: protein-complex assay, Rattus norvegicus
Rattus norvegicus [3] = species: Rattus norvegicus; test: Number of animals responding to the above phases out of 6 tested, expressed as Nr/N; assay type: functional
Rattus norvegicus [4] = test: Percent change in variable interval unpunished responding phase (VI) after administration of 20 mg/kg oral dose in rat Geller-Seifter test.; assay type: functional
Rattus norvegicus [5] = test: Percent change in punished responding phase (FR) after administration of 20 mg/kg oral dose in rat Geller-Seifter test.; assay type: functional
Rattus norvegicus [6] = test: Percent change in punished responding phase (FR) after administration of 10 mg/Kg oral dose in rat Geller-Seifter test; assay type: functional
Rattus norvegicus [7] = species: Rattus norvegicus; test: Number of animals responding to the above phases out of 8 tested, expressed as Nr/N; assay type: functional
Rattus norvegicus [8] = test: Percent change in variable interval unpunished responding phase (VI) after administration of 10 mg/Kg oral dose in rat Geller-Seifter test; assay type: functional
Rattus norvegicus [9] = test: Percent change in punished responding phase (FR) after administration of 20 mg/Kg oral dose in rat Geller-Seifter test; assay type: functional
Rattus norvegicus [10] = species: Rattus norvegicus; test: Number of animals responding to the above phases out of 16 tested, expressed as Nr/N; assay type: functional
Rattus norvegicus [11] = test: Percent change in variable interval unpunished responding phase (VI) after administration of 20 mg/Kg oral dose in rat Geller-Seifter test.; assay type: functional
Rattus norvegicus [12] = test: Percent change in punished responding phase (FR) after administration of 40 mg/Kg intraperitoneally in rat Geller-Seifter test; assay type: functional
Rattus norvegicus [13] = test: Percent change in variable interval unpunished responding phase (VI) after administration of 40 mg/Kg intraperitoneally in rat Geller-Seifter test.; assay type: functional
Rattus norvegicus [14] = test: Percent change in punished responding phase (FR) after administration of 20 mg/kg oral dose in rat Geller-Seifter test; assay type: functional

Row | SMILES | IC50 [1] [µM] | IC50 [2] [µM] | Nr/N (Rattus norvegicus [3]) | further results
1 | Cn1c2c(c3c(N)c4c(nc31)CCCC4=O)CCCC2 | 6.3 |  |  | 
2 | Cn1c2ccccc2c2cc3c(nc21)CCCC3=O | 10 | > 100 | 3 | Change (Rattus norvegicus [4]): 2%; Change (Rattus norvegicus [5]): 4%
3 | CC1CCc2nc3sc4c(c3c(N)c2C1=O)CCCC4 (stereo unspecified) | 1.6 |  |  | 
4 | CN1C(=O)CN=C(c2ccccc2)c2cc(Cl)ccc21 [DIAZEPAM] |  |  |  | Change (Rattus norvegicus [6]): 114%; Nr/N (Rattus norvegicus [7]): 7; Change (Rattus norvegicus [8]): 10%
5 | COC(=O)c1c(C)nc2c(c(C)c(C)n2C)c1N | 12 | > 100 |  | 
6 | Cn1c2ccccc2c2c(N)c3c(nc21)CCCC3 | > 100 |  |  | 
7 | CCOC(=O)c1c(C)nc2c(c1N)c1ccccc1n2C |  | > 100 |  | Change (Rattus norvegicus [9]): 22%; Nr/N (Rattus norvegicus [10]): 12; Change (Rattus norvegicus [11]): -3%
8 | CC1CCc2nc3sc4c(c3c(N)c2C1=O)CCCCC4 (stereo unspecified) | 0.37 |  |  | 
9 | CC1CCc2nc3sc4c(c3c(N)c2C1=O)CCC4 (stereo unspecified) | 1.7 |  | 5 | Change (Rattus norvegicus [9]): 26%; Change (Rattus norvegicus [11]): 0%
10 | CC1CCc2nc3c(c(N)c2C1=O)c1ccccc1n3C (stereo unspecified) |  | > 100 | 5 | Change (Rattus norvegicus [9]): 52%; Change (Rattus norvegicus [11]): 0%
11 | COC(=O)c1c(C)nc2sc3c(c2c1N)CCCC3 | 7.5 |  |  | Change (Rattus norvegicus [12]): 42%; Change (Rattus norvegicus [13]): 0%; Nr/N (Rattus norvegicus [7]): 8
12 | CC1CCc2nc3c(c(N)c2C1=O)c1c(n3C)CCCC1 (stereo unspecified) | 2.7 | 18 | 5 | Change (Rattus norvegicus [4]): 1%; Change (Rattus norvegicus [14]): 28%
13 | Nc1c2c(nc3sc4c(c13)CCCCC4)CCCC2=O | 0.29 | > 100 |  | 
14 | CC1CCc2nc3sc4ccccc4c3c(N)c2C1=O (stereo unspecified) | 0.46 |  | 5 | Change (Rattus norvegicus [9]): 30%; Change (Rattus norvegicus [11]): 0%
